The values below come from patent publication US8461348B2, “Heterocyclic derivative and use thereof” (Takeda Pharmaceutical Company Limited, priority 2008, dated 2013).

In one assay the test system is male SHR. Kind of assay: Measurement of hypotensive action in vivo in SHR. Further details: species or system rat. Conditions: single oral administration, 30 mg/kg, 5 hr after administration. On the procedure:
Animal used was male SHR (32- to 40-week-old, SHR/Izm, Japan SLC, Inc.). Two days before drug administration, a cannula (SP10+SP45, Natsume Seisakusho Co., Ltd.) filled with heparin physiological saline (200 U/mL, Ajinomoto Pharma Co., Ltd.) was inserted from the femoral artery under anesthesia with pentobarbital Na (50 mg/kg, i.p., Kyoritsu Seiyaku Corporation) and dwelled. The other end of the cannula was subcutaneously passed and exposed on the back of the neck where it was fixed. After a recovery period, the artery dwelling cannula was connected to a pressure transducer (DTX Plus DT-XXAD, Japan Becton Dickinson) and output on a pen recorder (linear recorder WR3320-4µL, Graphtec Corporation) via a polygraph (AP-641G, Nihon Kohden Co.), and the blood pressure waveform was recorded. The heart rate was calculated from the blood pressure waveform. After stable blood pressure was obtained, a solvent or a drug was orally administered once, and average blood pressure and average heart rate were measured over time. The blood pressure was measured under fasting, and the rats were reared under free ingestion of feed and water except the blood pressure measurement day. The drug was suspended in 0.5% methylcellulose aqueous solution. The administration dose was 2 mL/kg.

The target in the next assay is T1, Purified sGC (Homo sapiens, UniProt Q02153).
T1 sequence (Q02153 1-619): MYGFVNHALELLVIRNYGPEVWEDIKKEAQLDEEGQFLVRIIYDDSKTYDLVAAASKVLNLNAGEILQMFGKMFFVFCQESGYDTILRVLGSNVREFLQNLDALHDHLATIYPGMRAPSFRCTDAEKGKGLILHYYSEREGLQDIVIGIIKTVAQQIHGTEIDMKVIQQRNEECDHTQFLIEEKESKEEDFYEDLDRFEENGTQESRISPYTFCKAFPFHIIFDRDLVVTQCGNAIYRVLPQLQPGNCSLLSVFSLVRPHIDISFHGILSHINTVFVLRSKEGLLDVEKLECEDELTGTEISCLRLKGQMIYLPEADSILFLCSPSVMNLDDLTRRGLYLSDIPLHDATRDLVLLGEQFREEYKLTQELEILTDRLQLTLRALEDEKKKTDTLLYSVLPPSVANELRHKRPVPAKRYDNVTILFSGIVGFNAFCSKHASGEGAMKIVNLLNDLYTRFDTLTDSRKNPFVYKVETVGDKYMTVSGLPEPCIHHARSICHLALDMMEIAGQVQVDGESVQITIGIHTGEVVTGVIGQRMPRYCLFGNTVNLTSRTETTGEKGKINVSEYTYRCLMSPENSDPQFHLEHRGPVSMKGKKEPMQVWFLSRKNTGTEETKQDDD
T1 sequence (Q02108 1-690 partner): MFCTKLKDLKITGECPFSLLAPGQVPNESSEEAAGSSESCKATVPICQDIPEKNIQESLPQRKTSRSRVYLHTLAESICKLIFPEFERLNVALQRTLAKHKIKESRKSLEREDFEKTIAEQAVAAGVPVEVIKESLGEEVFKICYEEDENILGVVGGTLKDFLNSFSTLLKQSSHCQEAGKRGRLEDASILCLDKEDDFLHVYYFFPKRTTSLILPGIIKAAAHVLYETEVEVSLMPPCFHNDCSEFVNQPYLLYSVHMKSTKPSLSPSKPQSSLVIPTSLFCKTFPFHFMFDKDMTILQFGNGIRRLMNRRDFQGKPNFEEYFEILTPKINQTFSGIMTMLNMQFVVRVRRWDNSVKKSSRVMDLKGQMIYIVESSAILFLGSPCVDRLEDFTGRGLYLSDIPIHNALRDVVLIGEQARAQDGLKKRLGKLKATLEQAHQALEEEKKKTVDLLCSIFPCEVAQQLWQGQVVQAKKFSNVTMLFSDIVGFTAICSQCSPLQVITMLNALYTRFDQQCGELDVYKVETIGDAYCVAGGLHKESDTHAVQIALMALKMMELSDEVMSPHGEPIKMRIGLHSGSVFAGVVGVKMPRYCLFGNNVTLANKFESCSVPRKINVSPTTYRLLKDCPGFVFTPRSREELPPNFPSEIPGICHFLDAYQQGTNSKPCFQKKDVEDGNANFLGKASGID
Kind of assay: Measurement of sGC activation in vitro (cGMP production by purified sGC). In kind it is biochemical. Conditions: 20 min; test compound diluted to 30 μM, 10 μL/well plus equal volumes of sGC and GTP; 20 min at room temperature; cGMP without compound (1% DMSO) = 100%; read-out: cGMP amount (%) in experiment system. On the procedure:
To evaluate sGC activation of each compound, the following in vitro tests were performed.
A test compound was diluted with a reaction buffer (50 mM HEPES, 5 mM MgCl2, 2 mM DTT, 0.5 mM IBMX (isobutylmethylxanthine), 0.01% BSA) to 30 μM (3% DMSO), and dispensed to a 384 well plate (manufactured by REMP) at 10 μL/well. Purified sGC was diluted with the reaction buffer to 240 ng/mL and added to the plate at 10 μL/well. Then, 120 μM GTP prepared with the reaction buffer was added to the reaction plate at 10 μL/well to initiate an enzyme reaction. After stirring at room temperature for 20 min to allow reaction, 125 mM Na2CO3 was added at 15 μL/well to quench the reaction. Thereafter, 125 mM Zn Acetate (zinc acetate) was added at 15 μL/well to allow precipitation of unreacted GTP. Then, the amount of the resulting cGMP contained in the supernatant was quantified using a CatchPoint cGMP assay kit (molecular devices). The method followed the protocol attached to the assay kit. For detection, Super Signal ELISA Femto (Thermo) was used, and the amount of luminescence was measured with ARVO (Perkinelmer). The sGC activity with addition of the compound was calculated using the amount of cGMP produced without addition of the compound (in the presence of 1% DMSO) as 100%.

`O=C(O)c1cnn(Cc2nc(-c3cccc(C(F)(F)F)c3F)cs2)c1` [Example 52, 1-({4-[2-fluoro-3-(trifluoromethyl)phenyl]-1,3-thiazol-2-yl}methyl)-1H-pyrazole-4-carboxylic acid]: the “hypotension after 5 hr from the administration” value with male SHR is given as 29.4 mmHg. Moreover, the activity at 10 µM on Purified sGC was above 1000%.

For the compound `O=C(O)c1ccc(Cc2nc(-c3cccc(C(F)(F)F)c3)cs2)cc1` [Example 178, 4-({4-[3-(trifluoromethyl)phenyl]-1,3-thiazol-2-yl}methyl)benzoic acid], the “hypotension after 5 hr from the administration” value in the assay with male SHR was 15.8 mmHg. Besides, the activity at 10 µM on Purified sGC is above 1000%.
